According to ChEMBL document CHEMBL1124566, “N-(phthalimidoalkyl) derivatives of serotonergic agents: a common interaction at 5-HT1A serotonin binding sites?” (J Med Chem, 1989):

Target: T1, 5-hydroxytryptamine receptor 1A (Rattus norvegicus, UniProt P19327)
T1 sequence (P19327 whole entry): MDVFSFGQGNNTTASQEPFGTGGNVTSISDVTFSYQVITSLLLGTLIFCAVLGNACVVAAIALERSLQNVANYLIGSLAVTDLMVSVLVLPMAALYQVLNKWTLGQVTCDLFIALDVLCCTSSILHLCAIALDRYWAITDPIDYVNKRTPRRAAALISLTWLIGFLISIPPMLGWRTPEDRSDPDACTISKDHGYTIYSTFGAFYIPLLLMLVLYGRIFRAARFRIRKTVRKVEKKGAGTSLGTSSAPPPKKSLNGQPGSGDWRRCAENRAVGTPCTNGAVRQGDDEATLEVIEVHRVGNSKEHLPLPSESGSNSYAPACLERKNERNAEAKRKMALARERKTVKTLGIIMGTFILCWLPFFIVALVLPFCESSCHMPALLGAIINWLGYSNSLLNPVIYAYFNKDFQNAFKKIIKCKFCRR
Experiment: not given
Assay type: cell membranes, Membrane

Row | SMILES | Ki
1 | COc1ccccc1CCCNCCCCN1C(=O)c2ccccc2C1=O | 110 nM
2 | COc1ccc2[nH]cc(CCN(C)C)c2c1 [MEBUFOTENIN] | 10 nM
3 | COc1ccccc1CCCN(C)CCCCN1C(=O)c2ccccc2C1=O | 170 nM
4 | COc1ccc2ccccc2c1N1CCNCC1 | 34 nM
5 | COc1cccc2c1CC(NCCCN1C(=O)c3ccccc3C1=O)CC2 (stereo not given) | 48 nM
6 | COc1ccc2[nH]cc(CCNCCCCN3C(=O)c4ccccc4C3=O)c2c1 | 20 nM
7 | COc1ccccc1CCCN(C)C | 3200 nM
8 | COc1cccc2c1CC(NCCN1C(=O)c3ccccc3C1=O)CC2 (stereo not given) | 250 nM
9 | O=C1c2ccccc2C(=O)N1CCCCNCCCOc1cccc2ccccc12 | 25 nM
10 | COc1ccc2cccc(N3CCNCC3)c2c1 | 3.3 nM
11 | CN(CCCCN1C(=O)c2ccccc2C1=O)CCc1ccccc1 | 300 nM

Target: T1, 5-hydroxytryptamine receptor 1A
Experiment: Binding affinity of compound towards 5-HT 1A receptor by measuring ability to displace [3H]OH-DPAT from 5-hydroxytryptamine 1A receptor in rat hippocampal membranes

Row | SMILES | Ki
12 | CN(C)CCc1ccccc1 | 850 nM
13 | O=C1c2ccccc2C(=O)N1CCCNCCCOc1cccc2ccccc12 | 45 nM
14 | COc1ccccc1N1CCN(CCCCCN2C(=O)c3ccccc3C2=O)CC1 | 5 nM

Target: T1, 5-hydroxytryptamine receptor 1A
Experiment: as above
Remark: another data set of the same source

Row | SMILES | Ki
15 | O=C1c2ccccc2C(=O)N1CCNCCCOc1cccc2ccccc12 | 1330 nM
